# Measurements as given in PubChem BioAssay (NCI).
#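 Tested at 5 concentrations; 48 h exposure; 96-well plates; endpoints linearly interpolated, else capped at highest concentration. At the TGI there is no net growth.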
# Assays:
# Experiment in all cases: growth of human tumour cells (NCI), 48 h
# [1] = tested on: HT29 colon
# [2] = tested on: T-47D breast
# [3] = tested on: HS 578T breast
# [4] = tested on: A498 renal
# [5] = tested on: A549 NSCLC
# [6] = tested on: 786-0 renal
# [7] = tested on: KM12 colon
# [8] = tested on: NCI-H23 lung
# [9] = tested on: SW-620 colon
# [10] = tested on: SNB-75 CNS
# [11] = tested on: CCRF-CEM leukemia
# [12] = tested on: SNB-19 CNS
# [13] = tested on: OVCAR-3 ovarian
# [14] = tested on: MCF7 breast
# [15] = tested on: MDA-MB-231 breast
# [16] = tested on: EKVX NSCLC
# [17] = tested on: NCI-H522 lung
# [18] = tested on: SK-OV-3 ovarian
# [19] = tested on: HOP-62 NSCLC
# [20] = tested on: HL-60(TB) leukemia
# [21] = tested on: SK-MEL-5 melanoma
# [22] = tested on: MDA-MB-435
# [23] = tested on: OVCAR-5 ovarian
# [24] = tested on: SK-MEL-28 melanoma
# [25] = tested on: SK-MEL-2 melanoma
# [26] = tested on: SF-268 CNS
# [27] = tested on: HCC-2998 colon
# [28] = tested on: IGROV1 ovarian
# [29] = tested on: SN12C renal
# [30] = tested on: HOP-92 NSCLC
# [31] = tested on: MDA-N
# [32] = tested on: NCI-H226 lung
# [33] = tested on: UACC-257 melanoma
# [34] = tested on: COLO 205 colon
# [35] = tested on: UO-31 renal
# [36] = tested on: TK-10 renal
# [37] = tested on: HCT-15 colon
# [38] = tested on: RPMI-8226 leukemia
# [39] = tested on: CAKI-1 renal
# [40] = tested on: PC-3 prostate
# [41] = tested on: UACC-62 melanoma
# [42] = tested on: K-562 leukemia
# [43] = tested on: NCI-H460 lung
# [44] = tested on: MALME-3M melanoma
# [45] = tested on: SF-539 CNS
# [46] = tested on: HCT-116 colon
# [47] = tested on: RXF 393 renal
# [48] = tested on: DU-145 prostate
# [49] = tested on: M14 melanoma
# [50] = tested on: OVCAR-8 ovarian
# [51] = tested on: MOLT-4 leukemia
# [52] = tested on: LOX IMVI melanoma
# [53] = tested on: ACHN renal
# [54] = tested on: U251 CNS
# [55] = tested on: SF-295 CNS
# [56] = tested on: NCI/ADR-RES ovarian
# [57] = tested on: OVCAR-4 ovarian
# [58] = tested on: BT-549 breast
# [59] = tested on: SR leukemia
compound,measurement,setting,value
CCN(CC)CC(O)C1CCC(c2ccccc2)CC1 (stereo not drawn),TGI,[1],47.7 µM
same,TGI,[2],> 100 µM
same,TGI,[3],> 100 µM
same,TGI,[4],42.9 µM
same,TGI,[5],> 100 µM
same,TGI,[6],47.6 µM
same,TGI,[7],71.3 µM
same,TGI,[8],> 100 µM
same,TGI,[9],80.9 µM
same,TGI,[10],64.4 µM
same,TGI,[11],82.6 µM
same,TGI,[12],> 100 µM
same,TGI,[13],> 100 µM
same,TGI,[14],84.6 µM
same,TGI,[15],37.6 µM
same,TGI,[16],> 100 µM
same,TGI,[17],43.1 µM
same,TGI,[18],36.6 µM
same,TGI,[19],> 100 µM
same,TGI,[20],58 µM
same,TGI,[21],30.4 µM
same,TGI,[22],40.2 µM
same,TGI,[23],88.9 µM
same,TGI,[24],48.9 µM
same,TGI,[25],37.4 µM
same,TGI,[26],> 100 µM
same,TGI,[27],11.5 µM
same,TGI,[28],> 100 µM
same,TGI,[29],> 100 µM
same,TGI,[30],86.9 µM
same,TGI,[31],41.8 µM
same,TGI,[32],33.3 µM
same,TGI,[33],50.5 µM
same,TGI,[34],29.2 µM
same,TGI,[35],32.3 µM
same,TGI,[36],31.2 µM
same,TGI,[37],42.3 µM
same,TGI,[38],39 µM
same,TGI,[39],42.2 µM
same,TGI,[40],> 100 µM
same,TGI,[41],30.9 µM
same,TGI,[42],> 100 µM
same,TGI,[43],85.5 µM
same,TGI,[44],32.3 µM
same,TGI,[45],40.2 µM
same,TGI,[46],> 100 µM
same,TGI,[47],45.1 µM
same,TGI,[48],> 100 µM
same,TGI,[49],80.4 µM
same,TGI,[50],59.7 µM
same,TGI,[51],> 100 µM
same,TGI,[52],42.1 µM
same,TGI,[53],57.5 µM
same,TGI,[54],62.7 µM
same,TGI,[55],36.6 µM
same,TGI,[56],> 100 µM
Cc1nn(C)c2c1C(=O)N(C)CC(=O)N2C,TGI,[1],> 100 µM
same,TGI,[3],> 100 µM
same,TGI,[4],> 100 µM
same,TGI,[5],> 100 µM
same,TGI,[6],> 100 µM
same,TGI,[7],> 100 µM
same,TGI,[8],> 100 µM
same,TGI,[9],> 100 µM
same,TGI,[10],> 100 µM
same,TGI,[11],> 100 µM
same,TGI,[12],> 100 µM
same,TGI,[13],> 100 µM
same,TGI,[14],> 100 µM
same,TGI,[16],> 100 µM
same,TGI,[17],> 100 µM
same,TGI,[18],> 100 µM
same,TGI,[19],> 100 µM
same,TGI,[20],> 100 µM
same,TGI,[21],> 100 µM
same,TGI,[57],> 100 µM
same,TGI,[22],> 100 µM
same,TGI,[58],> 100 µM
same,TGI,[23],> 100 µM
same,TGI,[24],> 100 µM
same,TGI,[26],> 100 µM
same,TGI,[27],> 100 µM
same,TGI,[59],> 100 µM
same,TGI,[28],> 100 µM
same,TGI,[29],> 100 µM
same,TGI,[30],> 100 µM
same,TGI,[31],> 100 µM
same,TGI,[33],> 100 µM
same,TGI,[34],> 100 µM
same,TGI,[35],> 100 µM
same,TGI,[36],> 100 µM
same,TGI,[37],> 100 µM
same,TGI,[38],> 100 µM
same,TGI,[39],> 100 µM
same,TGI,[40],> 100 µM
same,TGI,[41],> 100 µM
same,TGI,[42],> 100 µM
same,TGI,[43],> 100 µM
same,TGI,[44],> 100 µM
same,TGI,[45],> 100 µM
same,TGI,[46],> 100 µM
same,TGI,[47],> 100 µM
same,TGI,[48],> 100 µM
same,TGI,[49],> 100 µM
same,TGI,[50],> 100 µM
same,TGI,[51],> 100 µM
same,TGI,[53],> 100 µM
same,TGI,[54],> 100 µM
same,TGI,[55],> 100 µM
CCOC(=O)C1(Cc2ccccc2)Cc2ccccc2C1=O (stereo not drawn),TGI,[1],65.2 µM
same,TGI,[2],88.3 µM
same,TGI,[3],> 100 µM
same,TGI,[5],> 100 µM
same,TGI,[6],> 100 µM
same,TGI,[7],> 100 µM
same,TGI,[8],69.9 µM
same,TGI,[9],> 100 µM
same,TGI,[10],> 100 µM
same,TGI,[11],95.5 µM
same,TGI,[13],> 100 µM
same,TGI,[14],> 100 µM
same,TGI,[15],> 100 µM
same,TGI,[16],97.8 µM
same,TGI,[18],> 100 µM
same,TGI,[19],> 100 µM
same,TGI,[20],> 100 µM
same,TGI,[21],28.8 µM
same,TGI,[57],> 100 µM
same,TGI,[22],45.3 µM
same,TGI,[23],> 100 µM
same,TGI,[24],92.5 µM
same,TGI,[25],30.7 µM
same,TGI,[26],> 100 µM
same,TGI,[27],> 100 µM
same,TGI,[59],78.2 µM
same,TGI,[28],> 100 µM
same,TGI,[29],> 100 µM
same,TGI,[30],56 µM
same,TGI,[31],44.6 µM
same,TGI,[32],58.6 µM
same,TGI,[34],37.7 µM
same,TGI,[35],57.3 µM
same,TGI,[36],> 100 µM
same,TGI,[37],> 100 µM
same,TGI,[38],60.8 µM
same,TGI,[40],> 100 µM
same,TGI,[41],81.7 µM
same,TGI,[42],> 100 µM
same,TGI,[43],> 100 µM
same,TGI,[44],52.3 µM
same,TGI,[45],96.2 µM
same,TGI,[46],> 100 µM
same,TGI,[48],> 100 µM
same,TGI,[49],40.9 µM
same,TGI,[50],> 100 µM
same,TGI,[51],57.5 µM
same,TGI,[52],> 100 µM
same,TGI,[53],> 100 µM
same,TGI,[54],> 100 µM
same,TGI,[55],> 100 µM
same,TGI,[56],62.8 µM
COC(=O)CCC(=O)c1ccc2c(c1)CC1(C2)Cc2ccc3c(c2C1)CCCC3=O (stereo not drawn),TGI,[1],> 76.9 µM
same,TGI,[2],> 100 µM
same,TGI,[3],> 100 µM
same,TGI,[4],82.8 µM
same,TGI,[5],> 100 µM
same,TGI,[6],> 85.2 µM
same,TGI,[7],> 85 µM
same,TGI,[8],> 76.5 µM
same,TGI,[9],> 100 µM
same,TGI,[10],> 100 µM
same,TGI,[11],11 µM
same,TGI,[12],> 100 µM
same,TGI,[13],47.7 µM
same,TGI,[14],69.9 µM
same,TGI,[15],> 100 µM
same,TGI,[16],> 100 µM
same,TGI,[17],> 73.5 µM
same,TGI,[18],> 100 µM
same,TGI,[19],97.4 µM
same,TGI,[20],13.4 µM
same,TGI,[21],22.5 µM
same,TGI,[57],> 74 µM
same,TGI,[22],19.9 µM
same,TGI,[23],> 100 µM
same,TGI,[24],> 100 µM
same,TGI,[25],36.9 µM
same,TGI,[26],> 100 µM
same,TGI,[27],> 93.9 µM
same,TGI,[59],8.05 µM
same,TGI,[28],> 100 µM
same,TGI,[29],> 100 µM
same,TGI,[30],64.7 µM
same,TGI,[31],47.9 µM
same,TGI,[32],85.6 µM
same,TGI,[33],54.6 µM
same,TGI,[34],> 67.6 µM
same,TGI,[35],> 59.3 µM
same,TGI,[36],> 100 µM
same,TGI,[37],> 67.4 µM
same,TGI,[39],78.1 µM
same,TGI,[40],> 79.9 µM
same,TGI,[41],> 100 µM
same,TGI,[42],9.44 µM
same,TGI,[43],> 100 µM
same,TGI,[44],> 68.1 µM
same,TGI,[45],42.6 µM
same,TGI,[46],> 100 µM
same,TGI,[47],97.4 µM
same,TGI,[48],> 100 µM
same,TGI,[49],> 57 µM
same,TGI,[50],> 100 µM
same,TGI,[51],18.2 µM
same,TGI,[52],> 100 µM
same,TGI,[53],> 70.2 µM
same,TGI,[54],> 100 µM
same,TGI,[55],79.3 µM
same,TGI,[56],> 100 µM
